# Like-named read-outs stand apart in the source and are kept apart here.
# What was measured:
# [1] = parameters: method as in earlier work; details: standard mixture for the calibration line; cited from earlier work
# S. aureus CECT 976 [2] = assay: MIC/MBC by broth microdilution, S. aureus CECT 976; format: cell-based; details: Staphylococcus aureus, CECT976, S. aureus CECT 976, broth microdilution; for MIC: 24 h, 37 °C, read-out: MIC; for MBC: plated on PCA, read-out: MBC
# Experimental: (§1) The minimum inhibitory concentration (MIC) and minimum bactericidal concentration (MBC) values of all QHSs were determined by the broth microdilution method, according to the approved M7-A7 (aerobes) standards of the Clinical and Laboratory Standards Institute (CLSI) guidelines. Overnight cell cultures of S. aureus, in the exponential phase of growth, were adjusted to an optical density (OD) of 0.132 ± 0.02 (λ = 600 nm). Then, a volume of 180 µL of the cell suspension was added to sterile, flat, clear-bottomed polystyrene (PS) 96-well microtiter plates (VWR—Radnor, PA, USA), already containing 20 µL of each QHS under study at concentrations ranging from 0.0625 to 64 µg/mL. In the end, the volume of each compound never exceeded 10% (v/v) of the well volume. Microtiter plates were then incubated for 24 h at 37 °C under agitation (150 rpm; INCU-Line IL 150R incubator). Absorbance measurements were performed at the beginning (t = 0 h) and end (t = 24 h) of the incubation period using a microtiter plate absorbance reader (BMG LABTECH FLUOstar Omega). Bacterial suspensions with DMSO and without QHSs were used as negative controls. […] All tests were performed with six replicates and a minimum of three independent repeats.
# Plates were incubated at 37 °C for 24 h, and growth was visually inspected. […] All tests were performed in triplicate, and with a minimum of three independent repeats.
# HepG2 cells = assay: Cytotoxicity by neutral red (NR) uptake; format: cell-based, human; details: HepG2, 24 h
# Experimental: The evaluation of the cytotoxicity effects of QHSs was performed using hepatocellular carcinoma (HepG2) cells. […] The cells used for all experiments were taken between the 9th and 13th passages, to avoid phenotypic changes.
# The cytotoxicity profile of the compounds under study was evaluated in HepG2 cells (2.5 × 10^5 cells/mL) seeded in 96-well plates. […] Control experiments were performed for viability endpoints by adding the vehicle (medium with 0.1% DMSO) instead of the compound solution.
# In the NR uptake assay, following a 24 h incubation period with the test compounds, the cell culture medium was aspirated, and fresh medium containing 150 µL of the dye (at a concentration of […]) was added to the cells. […] After incubation, the cell culture medium was discarded, and a mixture of absolute ethanol and distilled water (1:1) containing 5% acetic acid was added to extract the dye accumulated within the lysosomes of viable cells. The absorbance at 540 nm was measured using a microplate reader (Synergy HTX Multi-Mode Reader—BioTek, Winooski, VT, USA).
# For all assays, results are expressed as a percentage of the control (nontreated cells), taken as 100%.
# S. aureus RN4220 = assay: MIC/MBC by broth microdilution, S. aureus RN4220; format: cell-based; details: Staphylococcus aureus
# Experimental: (§2) S. aureus CECT 976, obtained from the Spanish Type Culture Collection, was used as the standard susceptibility testing control strain. This strain has been previously employed in diverse studies to validate the antimicrobial effects of novel molecules. Additional antibiotic-resistant strains, S. aureus XU212, SA1199B, and RN4220, generously provided by S. Gibbons (University College London, London, UK) were tested. […] The SA1199B strain is characterized by its resistance to fluoroquinolones due to the overexpression of the NorA efflux pump and its ciprofloxacin resistance.
# as §1
# (§3) Plates were incubated at 37 °C for 24 h, and growth was visually inspected. The MBC was determined as the lowest concentration of compound in which the total inhibition of growth on solid medium was observed (no colony forming units (CFUs) were detected). All tests were performed in triplicate, and with a minimum of three independent repeats.
# S. aureus CECT 976 [3] = assay: Quantitative suspension test, dose-response against planktonic bacteria; format: cell-based, Staphylococcus aureus; details: S. aureus CECT 976; 30 min exposure
# Experimental: A quantitative suspension test to explore the dose–response relationships of QHSs by evaluating bactericidal activity was performed. For this method, overnight grown cultures were centrifuged (VWR Mega Star 600R) at 3772× g for 10 min and washed twice with phosphate-buffered saline (PBS; 1.44 g/L of […]—Labkem, Barcelona, Spain; 8 g/L of sodium chloride, 0.2 g/L of potassium chloride, and 0.24 g/L of potassium dihydrogen phosphate—VWR, Leuven, Belgium) at pH 7.4. The collected cells were resuspended in PBS and adjusted to an optical density (OD) of 0.132 ± 0.02 (λ = 600 nm). Afterwards, 100 µL of this cell suspension was aseptically transferred to 800 µL of DW and allowed to stand for 2 min. To this mixture, 100 µL of each QHS solution diluted in DMSO at the desired concentration was added. The dose–response evaluation took place for 30 min at 37 °C. In the case of the negative control (untreated cells), the QHS solution was replaced by an equal volume of DMSO or DW. At the end of the contact time, QHS neutralization was performed through the dilution-neutralization method using a universal neutralizer (1 g/L L-histidine (Merck—Tokyo, Japan), 3 g/L lecithin (Alfa Aesar—Karlsruhe, Germany), 5 g/L sodium thiosulphate (Labkem—Barcelona, Spain), 30 g/L saponin (VWR Chemicals—Leuven, Belgium), and 30 g/L polysorbate 80 (VWR Chemicals—Le Havre, France) in 0.0025 M phosphate buffer). For neutralization, the test blend (100 µL) was added to 800 µL sterile aqueous neutralizing solution and 100 µL of DW. The mixture was gently agitated and allowed to stand for 10 min, after which serial dilutions (up to 10^−5) in sterile saline solution (0.85% w/v NaCl) were prepared. Then, 10 µL of each serial dilution was plated into Petri dishes containing PCA by the drop-plating method. The plates were allowed to set, then inverted and placed in an incubator at 37 °C for 24 h. The surviving cells on the QHS neutralized samples were determined by CFU counting on each plate, ensuring the counting of dilution plates that gave between 10 and 100 CFUs. The antibacterial activity was evaluated by quantification of logarithmic reduction (log CFU/mL), according to Equation (2). log CFU/mL reduction = log (X) − log (X0), (2) where X0 and X are the counts of CFU/mL before (untreated control cells) and after quaternary salt exposure, respectively.
# The QHS concentrations chosen for conducting the dose–response tests comprise of the MBC, which causes the complete reduction of planktonic cells, as well as lower concentrations. Specifically, compound 1e was evaluated at concentrations of 0.25, 0.5, 0.75, 1, 2, 4, 8, and 16 µg/mL, compound 7e at concentrations of 1, 2, 3.2, 3.5, 4, 8, and 16 µg/mL, compound 5e at concentrations of 0.5, 1, 1.3, 1.6, 2, 4, and 8 µg/mL, and compound 3e at concentrations of 0.5, 0.75, 1, 1.3, 1.6, 2, 4, and 8 µg/mL. In the case of compounds 2e, 6e, and 4e, concentrations tested were 0.5, 1, 1.6, 2, 4, and 8 µg/mL. All tests were performed in duplicate, and with a minimum of three independent repeats.
# The Chick–Watson mathematical model, provided in Equation (3), is considered an adequate approach to validate the kinetics of dose–response data. log X/X0 = − Kdis C^n t (3) where X0 and X are the counts of CFU/mL before and after quaternary salt exposure, respectively; Kdis is a killing rate coefficient ((mL.µg^−1)^n.min^−1); C is the quaternary salt concentration (µg.mL^−1); n is the concentration exponent and t is the exposure time (min). The concentration dependence of killing (n) was determined using a toolbox for linear regression in GraphPad Prism (version 8.4.0, GraphPad Software, La Jolla, CA, USA). The quality of the model was evaluated through the regression coefficient (R^2).
# S. aureus SA1199B = assay: MIC/MBC by broth microdilution, S. aureus SA1199B; format: cell-based; details: Staphylococcus aureus
# Experimental: as §2, §1, §3
# S. aureus XU212 = assay: MIC/MBC by broth microdilution, S. aureus XU212; format: cell-based; details: Staphylococcus aureus
# Experimental: as §2, §1, §3
# S. aureus CECT 976 [4] = system: S. aureus CECT 976; parameters: method as in Abreu et al. [44]; details: antibiotics, broth microdilution, ref Abreu et al. [44]; cited from earlier work
# [5] = Chromatographic hydrophobicity index (CHI) by UHPLC; format: physicochemical; details: for CHI: LC/UV at pH 2.6, calculated from retention time with the calibration line; for chromatographic logP: back-calculated from CHI at pH 2.6: CHI LogP = 0.047 × CHI + 0.36 × HBC − 1.10
# Experimental: The chromatographic hydrophobicity index (CHI) values were determined using the retention times (tR) of the samples under study and of a mixture of standard compounds on a UHPLC NEXERA SERIES LC-40 with a Luna C18 (2) column of 150 × 4.6 mm, 5 μm (Phenomenex, Torrance, CA, USA). Stock solutions of the test compounds (10 mM) were prepared in dimethyl sulfoxide (DMSO, 99.9%; Carlo Erba) and diluted in acetonitrile/water (1:1) to obtain a final concentration of 500 μM. The mobile phase A was 1.0% (v/v) aqueous acetic acid solution (pH = 2.6), and the mobile phase B was acetonitrile. The following gradient programme was applied: 1–7 min 0–100% B, 7–17 min 100% B, 17–19 min 100–0% B, 1 mL/min flow; rt, injection volume 40 μL.
# A calibration line was obtained using a mixture of the following compounds: benzimidazole, theophylline, paracetamol, caffeine, colchicine, carbamazepine, indole, propiophenone, butyrophenone, valerophenone, and heptanophenone (Table S1 and Figure S50, Supplementary Materials). The experimental CHI values of the compounds tested at pH 2.6 were then converted to the logarithm of octanol/water partition coefficient (CHI LogP) values using Equation (1). CHI LogP = 0.047 × CHI + 0.36 × HBC − 1.10 (1) where HBC is the hydrogen bond donor count.
SMILES,CHI0 pH 2.6 [1],MIC (S. aureus CECT 976 [2]) [µg/mL],MBC (S. aureus CECT 976 [2]) [µg/mL],CHI [5],chromatographic logP [5],also measured
CCCCC(=O)c1ccccc1 [Valerophenone],96.40,–,–,–,–,–
c1ccc2[nH]ccc2c1 [Indole],72.10,–,–,–,–,–
CCCC(=O)c1ccccc1 [Butyrophenone],87.30,–,–,–,–,–
CCC(=O)c1ccccc1 [Propiophenone],77.40,–,–,–,–,–
"CCCCCCCCCCCCCC[N+](CC)(CC)CC.[Br-] [Compound 7e, N,N,N-Triethyltetradecan-1-aminium bromide]",–,2,16,–,–,"NR uptake (lysosomal activity), % of control (HepG2 cells; 2 µg/mL): 86.24 ± 1.502% (****); NR uptake (lysosomal activity), % of control (HepG2 cells; 16 µg/mL): 18.51 ± 2.592% (****); NR uptake (lysosomal activity), % of control (HepG2 cells; 32 µg/mL): 16.59 ± 4.378% (****); MBC (S. aureus RN4220): 8 µg/mL; MIC (S. aureus RN4220): 4 µg/mL; concentration inducing reductions in S. aureus log CFU/mL > 5 (S. aureus CECT 976 [3]): 3.4 μg/mL; MBC (S. aureus SA1199B): 32 µg/mL; MIC (S. aureus SA1199B): 16 µg/mL; MBC (S. aureus XU212): 32 µg/mL; MIC (S. aureus XU212): 32 µg/mL"
c1ccc2[nH]cnc2c1 [Benzimidazole],6.300,–,–,–,–,–
"Cc1onc(-c2ccccc2)c1C(=O)N[C@@H]1C(=O)N2[C@@H]1SC(C)(C)[C@@H]2C(=O)O [[OXA], oxacillin]",–,–,–,–,–,MIC (S. aureus CECT 976 [4]): 0.48 µg/mL
CCCCCCC(=O)c1ccccc1 [Heptanophenone],112.1,–,–,–,–,–
Cn1c(=O)c2c(ncn2C)n(C)c1=O [Caffeine],23.41,–,–,–,–,–
CC(=O)Nc1ccc(O)cc1 [Paracetamol],18.77,–,–,–,–,–
Cn1c(=O)c2[nH]cnc2n(C)c1=O [Theophylline],17.90,–,–,–,–,–
"CCCCCCCC[P+](c1ccccc1)(c1ccccc1)c1ccccc1 [Compound 1b, Octyltriphenylphosphonium bromide]",–,2,16,71.06,2.24,–
"CCCCCC[n+]1ccccc1.[Br-] [Compound 6a, 1-Hexylpyridin-1-ium bromide]",–,> 64,> 64,27.07,0.172,–
"CCCCCCCCCC[n+]1ccc(C)cc1.[Br-] [Compound 4c, 1-Decyl-4-methylpyridin-1-ium bromide]",–,32,> 64,55.99,1.53,–
"CCCCCCCCCCCC[n+]1ccccc1.[Br-] [Compound 6d, 1-Dodecylpyridin-1-ium bromide]",–,2,8,65.58,–,–
"CCCCCCCC[n+]1cccc2ccccc21.[Br-] [Compound 5b, 1-Octylquinolin-1-ium bromide]",–,16,> 64,49.24,1.21,–
"CCCCCC[n+]1cccc2ccccc21.[Br-] [Compound 5a, 1-Hexylquinolin-1-ium bromide]",–,> 64,> 64,36.98,0.638,–
NC(=O)N1c2ccccc2C=Cc2ccccc21 [Carbamazepine],60.42,–,–,–,–,–
COc1cc2c(c(OC)c1OC)-c1ccc(OC)c(=O)cc1[C@@H](NC(C)=O)CC2 [Colchicine],43.90,–,–,–,–,–
"CCCCCCCCCCCCCCCC[n+]1cccc2ccccc21.[Br-] [Compound 5f, 1-Hexadecylquinolin-1-ium bromide]",–,4,8,101.1,3.65,–

# Reference: publication PMC10778626, “Efficacy of Novel Quaternary Ammonium and Phosphonium Salts Differing in Cation Type and Alkyl Chain Length against Antibiotic-Resistant Staphylococcus aureus” (International Journal of Molecular Sciences, 2023)
